Reference: US7851445B2, “Angiogenic heparin-binding epitopes, peptide amphiphiles, self-assembled compositions and related methods of use” (Northwestern University, priority 2005, dated 2010)
Where a SMILES comes first, the peptide text is derived from it. The star is where a group is joined. Palmitoyl = CCCCCCCCCCCCCCCC(=O)*

Tests used:
[1] = Isothermal titration calorimetry of heparin into HBPA solution; details: ITC, heparin titrated into HBPA in water, fit for a single type of binding site
From the text: Isothermal titration calorimetry was used to titrate increments of heparin independently into both the HBPAs and measured the heat released upon binding as a function of the molar ratio. The data obtained was integrated and fitted to a nonlinear function as previously described (Fromm, J. R., et al, “Differences in the Interaction of Heparin with Arginine and Lysine and the Importance of These Basic-Amino-Acids in the Binding of Heparin to Acidic Fibroblast Growth-Factor” Arch. Biochem. Biophys. 323 (1997) 279) to obtain an association constant of 10^7 in both cases (see FIGS. 3E and 3F). Despite similarity in their binding constants, the binding interaction of HBPA-1 and HBPA-2 were energetically very different. […] Such results can be explained with reference to their respective structures. HBPA-1 has hydrophobic residues on the periphery of its peptide chain and the increase in entropy is possibly due to displacement of solvent water molecules from these residues upon heparin interaction.
Characterization of the self-assembly. […] The images were analyzed using the Leica LCS imaging software. […] A frequency sweep experiment was performed at 3% strain with a ten-minute wait time (both determined by independently performing an amplitude sweep and a time strain experiment) to obtain 17 data points between angular frequencies of 0.1 to 10 rad/s. […]

Solubility in water = assay type: physicochemical

Row | SMILES | association constant [1] | solubility in water (Solubility in water)
1 | CCCCCCCCCCCCCCCC(=O)N[C@@H](C)C(=O)N[C@@H](C)C(=O)N[C@@H](C)C(=O)N[C@@H](C)C(=O)NCC(=O)NCC(=O)NCC(=O)N[C@@H](CC(C)C)C(=O)N[C@@H](CCCNC(=N)N)C(=O)N[C@@H](CCCCN)C(=O)N[C@@H](CCCCN)C(=O)N[C@@H](CC(C)C)C(=O)NCC(=O)N[C@@H](CCCCN)C(=O)N[C@@H](C)C(N)=O [HBPA-1] (Palmitoyl-AAAAGGGLRKKLGKA-NH2) | 10^7 | readily soluble in water
2 | CCCCCCCCCCCCCCCC(=O)N[C@@H](C)C(=O)N[C@@H](C)C(=O)N[C@@H](C)C(=O)N[C@@H](C)C(=O)NCC(=O)NCC(=O)NCC(=O)N[C@@H](CC(C)C)C(=O)N[C@@H](CC(C)C)C(=O)NCC(=O)N[C@@H](C)C(=O)N[C@@H](CCCNC(=N)N)C(=O)N[C@@H](CCCCN)C(=O)N[C@@H](CCCCN)C(=O)N[C@@H](CCCCN)C(N)=O [HBPA-2] (Palmitoyl-AAAAGGGLLGARKKK-NH2) | 10^7 | readily soluble in water
